Usually Kd stands for the free concentration of one partner at which half of the binding sites on the other are occupied at equilibrium, for simple one-to-one binding.

From patent publication US20240287054A1, “COMPOUNDS THAT BIND NON-CANONICAL G-QUADRUPLEX STRUCTURES AND METHODS OF MAKING AND USING THE SAME” (The U.S.A., as Represented by the Secretary, Department of …, priority 2021, published 2024) come the findings set out here.

Structures are written as SMILES. Read-outs that look alike come from different tables or passages of the source.

Data set [1] concerns dsDNA. Put plainly: SPR binding to dsDNA. The note with it: up to 5 μM compound injection.
Data set [2] has as its target MYCN hairpin-G4 DNA. Put plainly: FIA using compound fluorescence (Ex 340/Em 500 nm), titration with unlabeled MYCN G4 DNA. As to conditions: 100 nM compound titrated with folded unlabeled MYCN G4. The format is binding, human. The method, then:
In this study, FIA was used for validating the bindings between certain bivalent and MYCN G4 oligos. To measure the binding affinity, a solution of each compound was prepared in triplicate in a 96 well-plate (Costar, black side clear bottom), resulting in a final concentration of 100 nM (5% final DMSO in the working solution). Unlabeled MYCN G4 DNA was folded based on the above-mentioned annealing method, then added into the well plate resulting in different concentrations by a seral dilution. The plate was incubated at room temperature for 30 min, followed by centrifuging at 500 rpm for 2 minutes. The fluorescence intensity was then quantitatively recorded by a Synergy Mx microplate reader (BioTek) at Ex 340 nm/Em 500 nm. The fluorescence intensities were then normalized, and the binding affinity was calculated by fitting the curve using one-site total model in GraphPad Prism 8.3.1 software.

In data set [3] the target is MYCN G4 DNA. Put plainly: Surface plasmon resonance (SPR) with immobilized biotinylated MYCN G4 DNA. Type of data set: binding, human. The procedure:
Surface plasmon resonance (SPR) analysis. The SPR binding assays were performed with a BIAcore 3000 (GE Healthcare) instrument. A CM5 SPR biochip was loaded into the system and primed with running buffer (10 mM Tris, pH7.0, 100 mM KCl, 0.005% Tween 20, 5% DMSO) with a flow rate of 5 μL/min. Then both Flow Cell (Fc) 1 and 2 were activated by EDC/NHS (0.4 M/0.1 M) aqueous solution for 15 min, followed with an injection of streptavidin (SA) solution (0.2 mg/mL in 10 mM sodium acetate buffer, pH4.5) for 30 minutes. After the immobilization amount of SA reached 8,000-10,000 RU, the surface was deactivated by flowing 1 M Ethanolamine aqueous solution (pH 8.5) for 10 min and regenerated with 10 mM NaOH for 2 min to remove the unbound SA. In the meantime, biotinylated MYCN G4 DNA was prepared at 5 μM in the annealing buffer and heated up to 95° C. for 5 min and slowly cooled down. After annealing, a total of 150 μL solution was injected in the Fc 2 of SPR system for 30 min to immobilize DNA onto the chip surface. The small molecule solutions were tested once the baseline was stable.
To detect the binding signal as well as the binding affinity, a higher flowing rate (25 μL/min) was used in both Fc 1 (reference) and Fc 2 (DNA). Each of the compound solution was prepared at 20× designed the concentrations in DMSO, and then diluted into non-DMSO running buffer, resulting in a final concentration of 5% DMSO. Then, a total of 50 μL compound solution was injected in Fc 1-2 flow path for 120 s for association, followed with 200 s running of buffer for dissociation. An injection of 50 μL regeneration buffer (1 M KCl) could be performed between two samples if necessary. The final binding curve was obtained by reference subtraction. To determine the binding affinity (KD), a series of diluted compound solutions were injected and KD was calculated by BIAevaluation 4.0 software (GE Healthcare) using Langmuir 1:1 binding model.
In this example, SPR binding assays were performed to analyze binding activity of representative bivalent compounds of the present disclosure. The compounds of this example included a non-canonical binder component and a G4 stacker component. A BIAcore 3000 (GE Healthcare) instrument was used. A CM5 SPR biochip was used and primed with running buffer (10 mM Tris, pH7.0, 100 mM KCl, 0.005% Tween 20, 5% DMSO). To immobilize the compounds onto the chip surface, the flow rate was set as 5 μL/min. Then the carboxylated dextran on the chip surface was activated by EDC/NHS (0.4 M/0.1 M) aqueous solution for 15 min, followed with an injection of streptavidin (SA) solution (0.2 mg/mL in 10 mM sodium acetate buffer, pH 4.5) for 30 minutes. After the immobilization amount of SA, the surface was quenched by injecting 1 M ethanolamine (EA) aqueous solution (pH 8.5) for 10 min and regenerated with 10 mM NaOH for 2 min to remove the physical adsorption. Furthermore, biotinylated MYCN G4 DNA was prepared at 5 μM in the annealing buffer and heated up to 95° C. for 5 min followed with slowly cooling down to room temperature within 1 h. After annealing, a total of 150 μL solution was injected in the Fc 2 of SPR system for 30 min to immobilize DNA onto the chip surface. The compound solutions were then tested once the baseline was stable.
To detect the binding signal as well as the binding affinity, a higher flowing rate (25 μL/min) was used in both Fc 1 (blank) and Fc 2 (target). Each of the compound solutions was prepared at 20× designed the concentrations in DMSO, and then diluted into non-DMSO running buffer, resulting in a final concentration of 5% DMSO. Then, a total of 50 μL compound solution was injected in Fc 1-2 flow path for 120 s for association, followed with 200 s running of buffer for dissociation. An injection of 50 μL regeneration buffer (1 M KCl) could be performed between two samples if necessary. The final binding curve was obtained by referencing the blank channel (Fc 1). […]
(SPR reads the build-up and loss of mass on a sensor chip optically.)

The target in data set [4] is MYCN G4 DNA (2-AP at A11). In words: 2-Aminopurine (2-AP) fluorescence titration, A11-labeled MYCN G4. The note with it: 2-AP at A11 of MYCN G4. The format is binding, human. The procedure: 2-Aminopurine (2-AP) fluorescence titration. Fluorescence titrations based on 2-aminopurine labeling were performed using the protocol reported previously. Briefly, MYCN G4 oligonucleotide with a 2-AP substitution at either A11 or A18 position was annealed by heating the sample to 95° C. for 5 min and cooling down to RT slowly. The oligonucleotide with folded structure was diluted to 10 μM in Tris buffer (10 mM Tris, pH7.0, 100 mM KCl, 0.005% Tween 20) and prepared in a black 96-well plate (Costar) in triplicate as designed. Small molecules were diluted in DMSO to obtain a series of solutions with concentrations ranging from 0.1 to 5 mM, and then diluted by 20 times added into the plate (5% DMSO final concentration). The final concentration of 2-AP DNA was 1 μM in the well plate. To obtain the background fluorescence, small molecule solutions without DNA were also prepared in the same plate. After incubation for 30 min at RT, the plate was briefly centrifuged and scanned in Synergy Mx microplate reader (BioTek) with Ex 310 nm/Em 365 nm. Fluorescence signals were calculated by averaging the intensities in triplicate wells after subtracting the references. Finally, the binding signals were normalized and the KD value was determined by fitting the curve using a nonlinear sigmoidal dose-response model with a variable slope in GraphPad Prism 8.3.1 software.

A short description of data set [5]: Solubility / aggregation observations in binding buffers. The format is physicochemical. As to conditions: assay buffers, SPR sensorgrams. The method, then: A systematic binding assay between 14 analogs and MYCN G4 was performed by SPR and 2-AP (A11) fluorescence titration (FIGS. 26A-26N, 27A-27N). […] For 2-AP fluorescence titration assay (using an A11-substituted construct) observed KD values aligned well with SPR experiments, although the values were slightly lower overall. […] Taking all the SAR data into consideration, MY-8 was elected for cell-based assays.

Data set [6] relates to MYCN G4 DNA (hairpin minor groove). In words: Fluorescence displacement assay with Hoechst 33258. The format is binding, human. As to conditions: competitor added at 5 μM or 50 μM during DNA titration. The procedure: Fluorescence displacement assay. Fluorescence displacement assays were carried out by using two classical minor groove binders (Hoechst 33258 and netropsin). Hoechst 33258, as a fluorophore, was prepared at 5 μM concentration in the buffer (10 mM Tris, pH7.0, 100 mM KCl), and then titrated with different concentrations of unlabeled MYCN G4 oligonucleotides. For displacement, either compound MY-1 or netropsin was added into the solution resulting in a final concentration of 5 μM or 50 μM. Fluorescence signals were obtained with an excitation wavelength of 352 nm and an emission wavelength of 500 nm.

Data set [7] relates to ~19,000 different G4 sequences, G4 and non-G4 controls. Put plainly: High-density DNA oligo microarray (~19,000 G4 sequences) selectivity profiling. The format is binding. The note with it: 500 nM compound. The text has this:
To further characterize the binding selectivity of compound B33, high-density and large-scale DNA microarrays that contained ˜19,000 different G4 sequences were fabricated and used. In this microarray, 340 reported G4s (G-rich sequences) as well as 280 non-G4s (C-rich sequences) were designed as positive and negative controls. Additionally, over 17,000 canonical G4 oligos with short loops (1˜7 nt) were also designed and synthesized by varying the loop sequences to meet the diversity of G4 structure. After folding the surface-grafted DNA oligos in high concentration of KCl buffer, TO and compound B33 solutions (500 nM) were incubated with the microarray, respectively. Then the slides were thoroughly washed, dried, and imaged by a fluorescent scanner using green channel. […] By quantifying the fluorescence intensity of each spot, the bindings of TO and compound B33 were further investigated. The kernel density estimate (KDE) plot and violin plot represented the distribution of the binding signals throughout the whole microarray. […] Compound B33 spectrum spanned a much wider range than that of TO. In the violin plot (FIG. 37C), the mean SNR value of TO group was 12, much higher than that of the compound B33 group. […] Furthermore, the selectivity of the two compounds were quantitatively profiled by using Gini coefficient. Gini coefficient, initially used as an economic concept, has been applied in profiling the selectivity/promiscuity of kinase inhibitors as well as RNA binders. A higher Gini value represents a better selectivity of a compound (Gini coefficient>0.75 is considered an excellent selectivity). The Gini coefficient based on the SNRs in the microarray.

For data set [8], the system named is 12 different G4 oligos as well as non-G4 oligos (dsDNA and ssDNA). Put plainly: Small-scale DNA G4 microarray binding selectivity. As to conditions: fluorescent compound incubated 1 h; B33 at 2.5 μM. The procedure:
In this example, a small-scale DNA G4 microarray containing 12 different G4 oligos as well as non-G4 oligos (dsDNA and ssDNA) was fabricated and tested (Table 4). To start with, a SA-coated glass surface was prepared. An amino-functionalized glass slide was firstly modified with a solution of N, N′-disuccinimidyl carbonate (DSC, 1.0 M) and N, N-diisopropylethylamine (DIPEA, 1.0 M) in DMF overnight at room temperature. After being washed successively with EtOH, Milli-Q water (5 min each) and dried with N2 gas, the slide was incubated with 1 mg/mL of SA solution for 12 h (overnight) in a 4° C. fridge, followed by blocking the surface with EA buffer for 30 minutes. Then, the slide was rinsed with PBS buffer and Milli-Q water, and dried b centrifugation (1,700 g, 2 min).
In parallel, biotin-labeled DNA/RNA oligos were prepared in annealing buffer resulting in 5 μM stock solutions, followed by annealing (according to above methods). Then all the oligo solutions were transferred into a 384-well plate. Next, the microarray printing was conducted by a robotic arrayer (Nanoprint, Arrayit, USA) with a humidity of 60%. After the microarray was fabricated, the slide was placed in a slide box with a piece of wet Kimwipe tissue and incubated at 4° C. for 2 h.
To incubate with the fluorescent compounds (compound B33, thiazole orange (“TO”), and amsacrine), the slide was thoroughly rinsed with PBST, PBS, and water to remove the unbounded oligos. Then, the slide was dried by centrifugation (1,700 g, 2 min) and quickly assembled with microarray gaskets (Agilent, USA), followed by loading the compound solutions. After 1 h incubation, the slide was washed and dried with the above-mentioned method. Finally, the microarray slide was imaged by a fluorescence scanner (Mapix) using green channel and the fluorescence intensities were quantified.

With `COc1ccc(-c2noc(-c3ccc(NCCNc4c5ccc(Cl)cc5nc5ccc(OC)cc45)nn3)n2)cc1` [B32, N1-(6-chloro-2-methoxyacridin-9-yl)-N2-(6-(3-(4-methoxyphenyl)-1,2,4-oxadiazol-5-yl)pyridazin-3-yl)ethane-1,2-diamine], the “binding to dsDNA on SPR” value in data set [1] is recorded as “bound to dsDNA at low micromolar level”. Moreover, the Kd came to 0.311 ± 0.052 µM in data set [2] and 0.303 ± 0.032 µM in data set [3] (MYCN hairpin G4, SPR titration, read-out: KD by SPR).

Turning to `COc1ccc(-c2noc(-c3ccc(NCCCN4CCC(N5CCCCC5)CC4)nn3)n2)cc1` [MY-2], in data set [4], the “A11 2AP KD” value is reported as “sub-micromolar binders” and the Kd turned out to be 0.2 ± 0.03 µM. For the same molecule, the solubility / aggregation entry in data set [5] is “aggregation potential/poor solubility”. The dissociation constant (Kd) in data set [3] (MYCN G4, Langmuir 1:1 model, read-out: SPR KD) amounted to 2.6 ± 1.9 µM.

As to `COc1ccc(-c2noc(-c3ccc(NCCC4=CCCCC4)nn3)n2)cc1` [MY-4], the solubility / aggregation entry in data set [5] is given as “had solubility in suitable buffers”.

Regarding `COc1ccc(-c2noc(-c3ccc(NCCc4ccccc4)nn3)n2)cc1` [MY-9], the solubility / aggregation result in data set [5] was “had solubility in suitable buffers”.

With `Cn1cc(NC(=O)c2cc(NC(=O)CN=C(N)N)cn2C)cc1C(=O)NCCC(=N)N` [Netropsin, reference compound], the “displacement of Hoechst 33258 (decrease in fluorescence intensity)” value in data set [6] is “significant displacement”.

In the case of `CN1C(=Cc2cc[n+](C)c3ccccc23)Sc2ccccc21` [TO], the “binding to the 620 G4 and non-G4 controls” value in data set [7] (340 G4s and 280 non-G4s) is “binding to both G4s and non-G4s”. The molecule also had a Gini coefficient in data set [7] (based on SNRs in the microarray) of 0.236. Besides, the “mean SNR value” in data set [7] (whole microarray) amounted to 12. Further, the “binding pattern in G4 microarray” value in data set [8] is reported as “binding to most of the oligos except for dsDNA/ssDNA”.
